Reference: the NIST ThermoML archive (doi:10.1016/j.fluid.2013.09.026)
Numbers after ± are expanded uncertainties.

Test: cn = amount concentration of the nth substance listed, in mol/dm3
Conditions: 303 K, 101 kPa, Liquid; for viscosity: Capillary tube (Ostwald / Ubbelohde) method; for speed of sound: Linear variable-path acoustic interferometer; for mass density: Pycnometric method

Structure (SMILES)	viscosity (c1 = 0.002)	viscosity (c1 = 0.004)	viscosity (c1 = 0.006)	viscosity (c1 = 0.008)	viscosity (c1 = 0.01)	viscosity (c1 = 0.012)	viscosity (c1 = 0.014)	viscosity (c1 = 0.016)	viscosity (c1 = 0.018)	viscosity (c1 = 0.02)	speed of sound (c1 = 0.002)	speed of sound (c1 = 0.004)	speed of sound (c1 = 0.006)	speed of sound (c1 = 0.008)	speed of sound (c1 = 0.01)	speed of sound (c1 = 0.012)	speed of sound (c1 = 0.014)	speed of sound (c1 = 0.016)	speed of sound (c1 = 0.018)	speed of sound (c1 = 0.02)	further results
O=C1C(Cl)=C(Cl)C(=O)C(Cl)=C1Cl [2,3,5,6-tetrachloro-p-benzoquinone] + C[S+](C)[O-]	1.756 ± 0.017 mPa·s	1.757 ± 0.017 mPa·s	1.758 ± 0.017 mPa·s	1.773 ± 0.017 mPa·s	1.769 ± 0.017 mPa·s	1.767 ± 0.017 mPa·s	1.76 ± 0.017 mPa·s	1.756 ± 0.017 mPa·s	1.767 ± 0.017 mPa·s	1.769 ± 0.017 mPa·s	1472.4 ± 3.2 m/s	1472.6 ± 3.2 m/s	1471.9 ± 3.2 m/s	1471.3 ± 3.2 m/s	1471.6 ± 3.2 m/s	1470.3 ± 3.2 m/s	1467.1 ± 3.2 m/s	1468.3 ± 3.2 m/s	1468.5 ± 3.2 m/s	1468.7 ± 3.2 m/s	mass density (c1 = 0.002): 1091.4 ± 0.8 kg/m3; mass density (c1 = 0.004): 1091.6 ± 0.8 kg/m3; mass density (c1 = 0.006): 1091.9 ± 0.8 kg/m3; mass density (c1 = 0.008): 1091.9 ± 0.8 kg/m3; mass density (c1 = 0.01): 1092.1 ± 0.8 kg/m3; mass density (c1 = 0.012): 1091.6 ± 0.8 kg/m3; mass density (c1 = 0.014): 1091.4 ± 0.8 kg/m3; mass density (c1 = 0.016): 1091.2 ± 0.8 kg/m3; mass density (c1 = 0.018): 1091.7 ± 0.8 kg/m3; mass density (c1 = 0.02): 1091.7 ± 0.8 kg/m3
Cc1ccccc1N [2-methylaniline] + C[S+](C)[O-]	1.713 ± 0.016 mPa·s	1.713 ± 0.016 mPa·s	1.723 ± 0.016 mPa·s	1.718 ± 0.016 mPa·s	1.72 ± 0.016 mPa·s	1.723 ± 0.016 mPa·s	1.718 ± 0.016 mPa·s	1.724 ± 0.016 mPa·s	1.733 ± 0.016 mPa·s	1.723 ± 0.016 mPa·s	1471.4 ± 3.2 m/s	1471.8 ± 3.2 m/s	1472 ± 3.2 m/s	1471.2 ± 3.2 m/s	1472.6 ± 3.2 m/s	1473.5 ± 3.2 m/s	1472.5 ± 3.2 m/s	1471.9 ± 3.2 m/s	1473 ± 3.2 m/s	1473.9 ± 3.2 m/s	mass density (c1 = 0.002): 1090.8 ± 0.8 kg/m3; mass density (c1 = 0.004): 1090.4 ± 0.8 kg/m3; mass density (c1 = 0.006): 1090.5 ± 0.8 kg/m3; mass density (c1 = 0.008): 1089.6 ± 0.9 kg/m3; mass density (c1 = 0.01): 1089.5 ± 0.8 kg/m3; mass density (c1 = 0.012): 1090 ± 0.8 kg/m3; mass density (c1 = 0.014): 1089.7 ± 0.8 kg/m3; mass density (c1 = 0.016): 1089.8 ± 0.8 kg/m3; mass density (c1 = 0.018): 1089.4 ± 0.8 kg/m3; mass density (c1 = 0.02): 1090.3 ± 0.9 kg/m3
CN(C)c1ccccc1 [N,N-dimethylaniline] + C[S+](C)[O-]	1.734 ± 0.016 mPa·s	1.725 ± 0.016 mPa·s	1.721 ± 0.016 mPa·s	1.731 ± 0.016 mPa·s	1.747 ± 0.017 mPa·s	1.724 ± 0.016 mPa·s	1.73 ± 0.016 mPa·s	1.731 ± 0.016 mPa·s	1.733 ± 0.016 mPa·s	1.732 ± 0.016 mPa·s	1471.9 ± 3.2 m/s	1472.5 ± 3.2 m/s	1471.9 ± 3.2 m/s	1472.6 ± 3.2 m/s	1471.8 ± 3.2 m/s	1472.1 ± 3.2 m/s	1472.3 ± 3.2 m/s	1471.6 ± 3.2 m/s	1472.2 ± 3.2 m/s	1472 ± 3.2 m/s	mass density (c1 = 0.002): 1090.7 ± 0.8 kg/m3; mass density (c1 = 0.004): 1090.4 ± 0.8 kg/m3; mass density (c1 = 0.006): 1090.7 ± 0.8 kg/m3; mass density (c1 = 0.008): 1090.6 ± 0.8 kg/m3; mass density (c1 = 0.01): 1089.9 ± 0.8 kg/m3; mass density (c1 = 0.012): 1089.6 ± 0.8 kg/m3; mass density (c1 = 0.014): 1090.1 ± 0.8 kg/m3; mass density (c1 = 0.016): 1089.8 ± 0.8 kg/m3; mass density (c1 = 0.018): 1090.3 ± 0.8 kg/m3; mass density (c1 = 0.02): 1090.2 ± 0.8 kg/m3
CNc1ccccc1 [N-methylaniline] + C[S+](C)[O-]	1.713 ± 0.016 mPa·s	1.713 ± 0.016 mPa·s	1.723 ± 0.016 mPa·s	1.718 ± 0.016 mPa·s	1.724 ± 0.016 mPa·s	1.733 ± 0.016 mPa·s	1.723 ± 0.016 mPa·s	1.718 ± 0.016 mPa·s	1.718 ± 0.016 mPa·s	1.72 ± 0.016 mPa·s	1471.6 ± 3.2 m/s	1471.8 ± 3.2 m/s	1472 ± 3.2 m/s	1471.2 ± 3.2 m/s	1471.7 ± 3.2 m/s	1473.5 ± 3.2 m/s	1472.5 ± 3.2 m/s	1471.9 ± 3.2 m/s	1473 ± 3.2 m/s	1473.9 ± 3.2 m/s	mass density (c1 = 0.002): 1090.8 ± 0.8 kg/m3; mass density (c1 = 0.004): 1090.4 ± 0.8 kg/m3; mass density (c1 = 0.006): 1090 ± 0.8 kg/m3; mass density (c1 = 0.008): 1089.6 ± 0.8 kg/m3; mass density (c1 = 0.01): 1089.8 ± 0.8 kg/m3; mass density (c1 = 0.012): 1090 ± 0.8 kg/m3; mass density (c1 = 0.014): 1089.7 ± 0.8 kg/m3; mass density (c1 = 0.016): 1089.8 ± 0.8 kg/m3; mass density (c1 = 0.018): 1089.8 ± 0.8 kg/m3; mass density (c1 = 0.02): 1090.1 ± 0.8 kg/m3
Nc1ccccc1 [aniline] + C[S+](C)[O-]	1.789 ± 0.017 mPa·s	1.798 ± 0.017 mPa·s	1.79 ± 0.017 mPa·s	1.79 ± 0.017 mPa·s	1.806 ± 0.017 mPa·s	1.777 ± 0.017 mPa·s	1.802 ± 0.017 mPa·s	1.819 ± 0.018 mPa·s	1.79 ± 0.017 mPa·s	1.792 ± 0.017 mPa·s	1471.6 ± 3.2 m/s	1473.9 ± 3.2 m/s	1473.4 ± 3.2 m/s	1472.7 ± 3.2 m/s	1474.1 ± 3.2 m/s	1473.7 ± 3.2 m/s	1472.7 ± 3.2 m/s	1472.8 ± 3.2 m/s	1473 ± 3.2 m/s	1474 ± 3.2 m/s	mass density (c1 = 0.002): 1090.4 ± 0.8 kg/m3; mass density (c1 = 0.004): 1090.6 ± 0.8 kg/m3; mass density (c1 = 0.006): 1090.7 ± 0.8 kg/m3; mass density (c1 = 0.008): 1090.2 ± 0.8 kg/m3; mass density (c1 = 0.01): 1090.6 ± 0.8 kg/m3; mass density (c1 = 0.012): 1090.4 ± 0.8 kg/m3; mass density (c1 = 0.014): 1090.5 ± 0.8 kg/m3; mass density (c1 = 0.016): 1090.3 ± 0.8 kg/m3; mass density (c1 = 0.018): 1090.4 ± 0.8 kg/m3; mass density (c1 = 0.02): 1090.6 ± 0.8 kg/m3
